# Experimental data reported in patent US7288510B2, “Nitrogen-containing ortho ester-based surfactant, its preparation and use” (priority 2001, dated 2007).
# Marks after values point to notes of the source that are not given here.
# Legend:
# [1] = literature value; cited from earlier work
# [2] = dynamic contact angle of alkaline formulations; type: physicochemical; settings: formulation diluted 1:10, on Parafilm PM-922
# Description: In this example, the wetting properties of alkaline formulations of some of the surfactants earlier described are tested by dynamic contact angle measurements.
# Formulations I-III above were diluted 1:10 before measurements. The dynamic contact angle was measured on a hydrophobic, polymeric material (Parafilm PM-922, American Can Company) using a First Ten Ångstroms FTÅ 200 instrument (Portsmouth, Va., USA) equipped with a video camera and an image analyzing unit.
# [3] = surface tension at a concentration of 0.1%; type: physicochemical; settings: pH 8 buffer solution, bubble pressure method
# [4] = foaming behaviour (proposed ISO 4877 circulation method); type: physicochemical
# Description: The surfactant is dissolved in distilled water and diluted to a defined concentration. 500 ml of this solution is transferred to a thermostatable glass cylinder, graduated to 1500 ml. The solution is then circulated through a stainless steel tube using a pump. The solution enters the tube in the bottom of the glass cylinder and is released ca. 14 cm above the 1500-ml mark on the cylinder. The pump speed is 200 liter/h.
# The solution is circulated for 10 minutes (foam level recorded each minute), the pump is then stopped, and the foam level recorded for additional 5 minutes (proposed ISO-method ISO 4877).
# [5] = hydrotrope test: clarity interval of cleaning formulation; type: physicochemical; settings: for Active amount of hydrotrope added: amount needed until the formulation of Table 10 was clear; for Cloud point of formulation: formulation of Table 10 with the hydrotrope
# Description: [table] Tetrapotassium pyrophoshate and sodium metasilicate pentahydrate were dissolved in tap water. The ethoxylated alcohol was added to this solution, which then turned cloudy. The hydrotrope was added until the solution was clear, and the required amount was recorded. Then the temperature was raised until the mixture went cloudy again.
compound,measurement,setting,value
"CCCCCCCCCCCC[N+](C)(C)C.[Br-] [Dodecyltrimethylammonium bromide, n-dodecyltrimethylammonium bromide]",cmc at 21° C.,[1],4.9^c g/l
same,Contact angle after 10 s,[2],68.2 °
same,Contact angle after 30 s,[2],67.9 °
same,Contact angle after 1 min,[2],67.4 °
same,γ at 0.10% and 21° C.,[3],52.5 mN/m
same,foaming behaviour in words,[4],not affected by the addition of acid
same,Foam Volume,"[4]; 0.01% in distilled water, 1 min, circulating",160 mL
same,Foam Volume,"[4]; 0.01% in distilled water, 2 min, circulating",160 mL
same,Foam Volume,"[4]; 0.01% in distilled water, 3 min, circulating",160 mL
same,Foam Volume,"[4]; 0.01% in distilled water, 4 min, circulating",140 mL
same,Foam Volume,"[4]; 0.01% in distilled water, 5 min, circulating",140 mL
same,Foam Volume,"[4]; 0.01% in distilled water, 6 min, circulating",140 mL
same,Foam Volume,"[4]; 0.01% in distilled water, 7 min, circulating",140 mL
same,Foam Volume,"[4]; 0.01% in distilled water, 8 min, circulating",140 mL
same,Foam Volume,"[4]; 0.01% in distilled water, 9 min, circulating",140 mL
same,Foam Volume,"[4]; 0.01% in distilled water, 10 min, circulating",140 mL
same,Foam Volume,"[4]; 0.01% in distilled water, 11 min, pump stopped at 10 min",0 mL
same,Foam Volume,"[4]; 0.01% in distilled water, 12 min, pump stopped at 10 min",0 mL
same,Foam Volume,"[4]; 0.01% in distilled water, 13 min, pump stopped at 10 min",0 mL
same,Foam Volume,"[4]; 0.01% in distilled water, 14 min, pump stopped at 10 min",0 mL
same,Foam Volume,"[4]; 0.01% in distilled water, 15 min, pump stopped at 10 min",0 mL
same,Foam Volume,"[4]; 0.1% acid treated (pH 2.5, sulfuric acid, stirred 10 minutes), 1 min, circulating",820 mL
same,Foam Volume,"[4]; 0.1% acid treated (pH 2.5, sulfuric acid, stirred 10 minutes), 2 min, circulating",1100 mL
same,Foam Volume,"[4]; 0.1% acid treated (pH 2.5, sulfuric acid, stirred 10 minutes), 3 min, circulating",1280 mL
same,Foam Volume,"[4]; 0.1% acid treated (pH 2.5, sulfuric acid, stirred 10 minutes), 4 min, circulating",1360 mL
same,Foam Volume,"[4]; 0.1% acid treated (pH 2.5, sulfuric acid, stirred 10 minutes), 5 min, circulating",1380 mL
same,Foam Volume,"[4]; 0.1% acid treated (pH 2.5, sulfuric acid, stirred 10 minutes), 6 min, circulating",1380 mL
same,Foam Volume,"[4]; 0.1% acid treated (pH 2.5, sulfuric acid, stirred 10 minutes), 7 min, circulating",1360 mL
same,Foam Volume,"[4]; 0.1% acid treated (pH 2.5, sulfuric acid, stirred 10 minutes), 8 min, circulating",1360 mL
same,Foam Volume,"[4]; 0.1% acid treated (pH 2.5, sulfuric acid, stirred 10 minutes), 9 min, circulating",1350 mL
same,Foam Volume,"[4]; 0.1% acid treated (pH 2.5, sulfuric acid, stirred 10 minutes), 10 min, circulating",1340 mL
same,Foam Volume,"[4]; 0.1% acid treated (pH 2.5, sulfuric acid, stirred 10 minutes), 11 min, pump stopped at 10 min",800 mL
same,Foam Volume,"[4]; 0.1% acid treated (pH 2.5, sulfuric acid, stirred 10 minutes), 12 min, pump stopped at 10 min",340 mL
same,Foam Volume,"[4]; 0.1% acid treated (pH 2.5, sulfuric acid, stirred 10 minutes), 13 min, pump stopped at 10 min",280 mL
same,Foam Volume,"[4]; 0.1% acid treated (pH 2.5, sulfuric acid, stirred 10 minutes), 14 min, pump stopped at 10 min",120 mL
same,Foam Volume,"[4]; 0.1% acid treated (pH 2.5, sulfuric acid, stirred 10 minutes), 15 min, pump stopped at 10 min",60 mL
same,Foam Volume,"[4]; 0.1% in distilled water, 1 min, circulating",780 mL
same,Foam Volume,"[4]; 0.1% in distilled water, 2 min, circulating",1080 mL
same,Foam Volume,"[4]; 0.1% in distilled water, 3 min, circulating",1260 mL
same,Foam Volume,"[4]; 0.1% in distilled water, 4 min, circulating",1340 mL
same,Foam Volume,"[4]; 0.1% in distilled water, 5 min, circulating",1370 mL
same,Foam Volume,"[4]; 0.1% in distilled water, 6 min, circulating",1360 mL
same,Foam Volume,"[4]; 0.1% in distilled water, 7 min, circulating",1360 mL
same,Foam Volume,"[4]; 0.1% in distilled water, 8 min, circulating",1340 mL
same,Foam Volume,"[4]; 0.1% in distilled water, 9 min, circulating",1320 mL
same,Foam Volume,"[4]; 0.1% in distilled water, 10 min, circulating",1320 mL
same,Foam Volume,"[4]; 0.1% in distilled water, 11 min, pump stopped at 10 min",1200 mL
same,Foam Volume,"[4]; 0.1% in distilled water, 12 min, pump stopped at 10 min",800 mL
same,Foam Volume,"[4]; 0.1% in distilled water, 13 min, pump stopped at 10 min",400 mL
same,Foam Volume,"[4]; 0.1% in distilled water, 14 min, pump stopped at 10 min",260 mL
same,Foam Volume,"[4]; 0.1% in distilled water, 15 min, pump stopped at 10 min",180 mL
CC(C)c1ccc(S(=O)(=O)[O-])cc1.[Na+] [Sodium cumene sulfonate],Active amount of hydrotrope added,[5],9.0 % (w/w)
same,Cloud point of formulation,[5],45-50 °C
"CCCCCCCCCCCCCC[N+](C)(C)C.[Br-] [Tetradecyltrimethylammonium bromide, n-tetradecyltrimethylammonium bromide]",cmc at 21° C.,[1],1.2^d g/l
same,Contact angle after 10 s,[2],60.4 °
same,Contact angle after 30 s,[2],60.1 °
same,Contact angle after 1 min,[2],59.1 °
same,γ at 0.10% and 21° C.,[3],41.5 mN/m
disodium octyliminodipropionate,Active amount of hydrotrope added,[5],6.0 % (w/w)
same,Cloud point of formulation,[5],45-50 °C
